Source: ChEMBL document CHEMBL1201862, “PubChem BioAssay data set” (2004)
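1) Cells in 96-well plates. 2) Compound, 48 h, 5 concentrations. 3) Linear interpolation between surrounding doses. 4) Unreached endpoint = highest concentration. Here, GI50 denotes the concentration required for 50% inhibition of growth.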 The source made the active and inactive calls. Cut-off read from the data, not from the text of the source: active = GI50 up to about 1.1 µM and inactive = higher.

Columns and labels:
Assay in all cases: NCI anticancer screen, dose series, 48 h
OVCAR-3 = test system: OVCAR-3
SK-MEL-28 = test system: SK-MEL-28
NCI-H226 = test system: NCI-H226
ACHN = test system: ACHN
OVCAR-4 = test system: OVCAR-4
UACC-62 = test system: UACC-62
HOP-62 = test system: HOP-62
SF-268 = test system: SF-268
UO-31 = test system: UO-31
MOLT-4 = test system: MOLT-4
KM12 = test system: KM12
LOX IMVI = test system: LOX IMVI
786-0 = test system: 786-0
MDA-N = test system: MDA-N
SW-620 = test system: SW-620
U-251 = test system: U-251
Malme-3M = test system: Malme-3M
SK-MEL-5 = test system: SK-MEL-5
K562 = test system: K562
HCC 2998 = test system: HCC 2998

Row | SMILES | GI50 (OVCAR-3) | GI50 (SK-MEL-28) | GI50 (NCI-H226) | GI50 (ACHN) | GI50 (OVCAR-4) | GI50 (UACC-62) | GI50 (HOP-62) | GI50 (SF-268) | GI50 (UO-31) | GI50 (MOLT-4) | GI50 (KM12) | GI50 (LOX IMVI) | GI50 (786-0) | GI50 (MDA-N) | GI50 (SW-620) | GI50 (U-251) | GI50 (Malme-3M) | GI50 (SK-MEL-5) | GI50 (K562) | GI50 (HCC 2998)
1 | Cc1cc(Cl)ccc1OCC(=O)Nc1nc(N)nc(N)n1 | > 100 µM (inactive) | > 100 µM (inactive) | > 100 µM (inactive) | > 100 µM (inactive) | > 100 µM (inactive) | > 100 µM (inactive) | > 100 µM (inactive) | > 100 µM (inactive) | 40.7 µM (inactive) | > 100 µM (inactive) | > 100 µM (inactive) | > 100 µM (inactive) | > 100 µM (inactive) | > 100 µM (inactive) | > 100 µM (inactive) | > 100 µM (inactive) | > 100 µM (inactive) | > 100 µM (inactive) | > 100 µM (inactive) | 
2 | c1cc(-c2cnc(-c3ccc4c(c3)CCCO4)o2)ccn1 | 16.4 µM (inactive) | 18.1 µM (inactive) | 15.3 µM (inactive) | 14 µM (inactive) | 14.1 µM (inactive) | 17.1 µM (inactive) | 16.5 µM (inactive) | 15.6 µM (inactive) | 12.3 µM (inactive) | 5.62 µM (inactive) |  | 13.6 µM (inactive) | 19.5 µM (inactive) | 14.7 µM (inactive) |  | 16.7 µM (inactive) | 16.7 µM (inactive) | 12.6 µM (inactive) | 5.05 µM (inactive) | 
3 | NNC(=S)N1CCN(C(=S)NN)CC1 | > 100 µM (inactive) | > 100 µM (inactive) |  | > 100 µM (inactive) | 28.8 µM (inactive) | > 100 µM (inactive) | > 100 µM (inactive) | > 100 µM (inactive) | > 100 µM (inactive) | > 100 µM (inactive) | > 100 µM (inactive) | 58.1 µM (inactive) | > 100 µM (inactive) | > 100 µM (inactive) | > 100 µM (inactive) | > 100 µM (inactive) | > 100 µM (inactive) | > 100 µM (inactive) |  | > 100 µM (inactive)
4 | Cc1cc2cc3ccccc3cc2c(=O)[nH]1 | > 10 µM (inactive) |  | > 10 µM (inactive) | > 10 µM (inactive) | > 10 µM (inactive) | > 10 µM (inactive) |  | > 10 µM (inactive) | > 10 µM (inactive) | > 10 µM (inactive) | > 10 µM (inactive) | > 10 µM (inactive) | > 10 µM (inactive) | > 10 µM (inactive) | > 10 µM (inactive) | > 10 µM (inactive) |  |  | > 10 µM (inactive) | 
5 | COC(=O)c1ccc(/C=C2\Oc3ccccc3C2=O)cc1 | > 100 µM (inactive) | > 100 µM (inactive) | > 100 µM (inactive) | > 100 µM (inactive) | > 100 µM (inactive) | > 100 µM (inactive) | > 100 µM (inactive) | > 100 µM (inactive) | > 100 µM (inactive) | > 100 µM (inactive) | > 100 µM (inactive) |  | > 100 µM (inactive) | > 100 µM (inactive) | > 100 µM (inactive) | > 100 µM (inactive) |  | > 100 µM (inactive) | > 10 µM (inactive) | > 100 µM (inactive)
6 | O=C1/C(=C\c2ccc([N+](=O)[O-])cc2)N(S(=O)(=O)c2ccccc2)c2ncccc21 | 12.2 µM (inactive) | 20.7 µM (inactive) | 22.9 µM (inactive) | 15.9 µM (inactive) |  | 9.23 µM (inactive) | 18.7 µM (inactive) | 23.1 µM (inactive) | 19.3 µM (inactive) | 3.24 µM (inactive) | 20.3 µM (inactive) | 19.5 µM (inactive) | 16.5 µM (inactive) | 19.5 µM (inactive) | 14.9 µM (inactive) | 18.2 µM (inactive) | 18.2 µM (inactive) | 16.8 µM (inactive) | 3.55 µM (inactive) | 
7 | CN1CCN(CCn2c3c4ccccc4ccc3c3oc(=O)c4ccccc4c32)CC1 | 10.6 µM (inactive) | 4.94 µM (inactive) | 16.6 µM (inactive) | 3.05 µM (inactive) | 2.26 µM (inactive) | 3.56 µM (inactive) | 2.07 µM (inactive) | 6 µM (inactive) | 2.19 µM (inactive) | 1.5 µM (inactive) | 2.42 µM (inactive) |  | 1.73 µM (inactive) | 1.56 µM (inactive) | 1.86 µM (inactive) | 2.49 µM (inactive) | 15.1 µM (inactive) | 1.78 µM (inactive) | 1.44 µM (inactive) | 1.87 µM (inactive)
8 | CCn1c2ccccc2c2cc(Nc3cc(C)[nH]c(=O)n3)ccc21 | > 100 µM (inactive) | > 100 µM (inactive) |  | > 100 µM (inactive) | > 100 µM (inactive) | 0.349 µM (active) | > 100 µM (inactive) | > 100 µM (inactive) | > 100 µM (inactive) |  | 5.7 µM (inactive) |  | > 100 µM (inactive) | 0.394 µM (active) | > 100 µM (inactive) | > 100 µM (inactive) |  |  | 0.47 µM (active) | > 100 µM (inactive)
9 | Cn1cnc([N+](=O)[O-])c1Sc1nnnn1-c1ccccc1 | 13.6 µM (inactive) | 14.4 µM (inactive) | 17.3 µM (inactive) | 13.9 µM (inactive) | 10.4 µM (inactive) | 13.9 µM (inactive) | > 100 µM (inactive) | 19.5 µM (inactive) | 13.7 µM (inactive) | 2.17 µM (inactive) | 17.4 µM (inactive) | 5.65 µM (inactive) | 16.7 µM (inactive) |  | 7.05 µM (inactive) | 13 µM (inactive) | 7.76 µM (inactive) | 16.1 µM (inactive) | 3.94 µM (inactive) | 18.5 µM (inactive)
10 | Cc1cccc(C)c1NC(=O)CCCC(=O)C(C#N)c1ccc(Cl)cc1 (centres undefined) | > 100 µM (inactive) | > 100 µM (inactive) | > 100 µM (inactive) | > 100 µM (inactive) | > 100 µM (inactive) | > 100 µM (inactive) | > 100 µM (inactive) | > 100 µM (inactive) | > 100 µM (inactive) | > 100 µM (inactive) | > 100 µM (inactive) | > 100 µM (inactive) | > 100 µM (inactive) |  | > 100 µM (inactive) | > 100 µM (inactive) | > 100 µM (inactive) | > 100 µM (inactive) | > 100 µM (inactive) | > 100 µM (inactive)
11 | Nc1ccc2[nH]cc(CCC(=O)O)c2c1 | > 100 µM (inactive) | > 100 µM (inactive) | > 100 µM (inactive) | > 100 µM (inactive) | > 100 µM (inactive) | > 100 µM (inactive) | > 100 µM (inactive) | > 100 µM (inactive) | > 100 µM (inactive) | > 100 µM (inactive) | > 100 µM (inactive) | > 100 µM (inactive) | > 100 µM (inactive) | > 100 µM (inactive) | 88.1 µM (inactive) | > 100 µM (inactive) | 28.8 µM (inactive) | > 100 µM (inactive) |  | 
12 | CCN(CC)CCNc1ccc2ncn3c4c(OC)cccc4c(=O)c1c23 | 0.863 µM (active) | 6.47 µM (inactive) | 5.86 µM (inactive) | 3.38 µM (inactive) | 2.93 µM (inactive) | 6.68 µM (inactive) | 6.67 µM (inactive) | 3.92 µM (inactive) | 4.38 µM (inactive) | 0.912 µM (active) | 4.26 µM (inactive) |  | 4.83 µM (inactive) | 4.27 µM (inactive) | 1.08 µM (active) | 4.89 µM (inactive) | 6.76 µM (inactive) | 2.38 µM (inactive) | 2.67 µM (inactive) | 4.94 µM (inactive)
13 | CC(=O)O[C@@H]1CC[C@@]2(C)C(=O)C34C[C@@]5(C)C([C@@H](C)CCCC(C)C)CCC5(C)[C@](O)(O3)C(=O)[C@H]4C2C1(C)C (some centres undefined) | 12.3 µM (inactive) | 18.9 µM (inactive) | 15.7 µM (inactive) | 14 µM (inactive) | 13.2 µM (inactive) | 18.2 µM (inactive) | 17.7 µM (inactive) | 15.8 µM (inactive) | 13.3 µM (inactive) | 7.74 µM (inactive) | 11.3 µM (inactive) | 15.6 µM (inactive) | 12.9 µM (inactive) |  | 11.5 µM (inactive) | 14.3 µM (inactive) | 18.5 µM (inactive) | 15 µM (inactive) | 9.42 µM (inactive) | 11.3 µM (inactive)
14 | CC(C)NC(=O)OCc1c(COC(=O)NC(C)C)n(C)c2c1ccc1cc(Cl)c(Cl)cc12 | 16.6 µM (inactive) |  | 3.78 µM (inactive) | 11.7 µM (inactive) | 20.1 µM (inactive) | 12 µM (inactive) | 14.7 µM (inactive) | 13.8 µM (inactive) | 16.7 µM (inactive) | 3.97 µM (inactive) |  | 9.23 µM (inactive) | 7.5 µM (inactive) | 13.6 µM (inactive) | 11.3 µM (inactive) | 15.9 µM (inactive) | 10.8 µM (inactive) | 16.5 µM (inactive) | 4.44 µM (inactive) | 
15 | S=C(S)NCNC(=S)S | > 100 µM (inactive) | > 100 µM (inactive) |  | > 100 µM (inactive) | > 100 µM (inactive) | > 100 µM (inactive) | > 100 µM (inactive) | > 100 µM (inactive) | > 100 µM (inactive) | > 100 µM (inactive) | > 100 µM (inactive) | > 100 µM (inactive) | > 100 µM (inactive) | > 100 µM (inactive) | > 100 µM (inactive) | > 100 µM (inactive) | > 100 µM (inactive) | > 100 µM (inactive) | > 100 µM (inactive) | > 100 µM (inactive)
